Legend:
FaDu tumour xenograft [1] = assay: Clonogenic Survival, FaDu tumour xenograft-bearing Rag2M mice, compound ± radiation (CS-ER); format: in vivo, mouse
Method: FaDu tumour xenograft-bearing Rag2M mice were treated with single administrations of test compounds at indicated doses±radiation as indicated, at time 0.
Mice were irradiated at 1 h post compound administration (unless otherwise indicated), with 300 KV X-rays and a 10 mA current from a Precision XRAD 300 machine (USA) with a beam-hardening filter (2 mm Al+0.25 mm Cu+0.75 mm Sn) and an adjustable site to specimen distance (SSD) at a dose of 8-10 Gy, delivered at a rate of ˜1.05 Gy/min.
Mice were terminated at times after irradiation as indicated, and tumour tissues excised. A portion of tumour approximately 300-500 mg was briefly minced using sterile scissors and placed in a pre-weighed gentleMACS C tube (Miltenyi Biotec cat #130-093-237) and weighed with combined tumour+tube mass recorded. A 5 mL aliquot of enzyme cocktail comprising of trypsin/DNase/collagenase/EDTA-Na2 in PBS (1 mg/ml trypsin+0.26 mg/ml DNase+0.21 mg/ml collagenase+2 mM EDTA-Na2) was added to the tube, which is then run on the gentleMACS Dissociator disaggregation system. Tubes were then incubated at 37° C. and continually rotated for 20 min before again running on the gentleMACS Dissociator program. Samples were then diluted with 5 ml MEM medium containing 5% FBS and filtered (Falcon cell strainer 100 μm, cat #352360). After centrifugation (1100 rpm for 6 minutes at 4° C.) supernatant was aspirated and the cells resuspended in 4 ml cold growth medium (MEM+10% FBS)+50 ul DNase (5 mg/ml DNase solution). Cell numbers were counted from the same cell solution using a hemacytometer. Appropriate dilutions (control: 10,000 cells/ml; 8Gy: 400,000 cells/ml; drug+radiation treated; 500,000 cells/ml) were made and cells then plated in triplicate: control: 100 μl and 300 μl (1000 and 3000 cells/6 cm tissue culture plate); 8Gy: 30 μl, 105 μl and 350 μl (12000, 42000 cells/6 cm plates and 140000 cells/10 cm plate); drug+8Gy: 70 μl, 300p, 1.2 ml (35000 and 150000 cells/6 cm plates and 600000 cells/10 cm plates—only duplicate). Plates were incubated at 37° C. (in a 5% CO2, 5% O2 and balance N2 environment) for 14 days. For a final and accurate automated live-cell counting a solution of Hoechst33342 (0.01 mg/ml)+Propidium Iodide (0.004 mg/ml) in 0.9% saline was mixed with an appropriate cell number dilution of the samples in 96 well plates (50 ul staining solution+50 ul cell suspension of 10000 cells/ml) and images are taken of the wells and cell numbers are calculated by a computer program.
After 14 days plates were removed from the incubator, rinsed with PBS and stained with cold 2 g/L Malachite green oxalate salt solution (Sigma-Aldrich, cat #M6880) for 30 minutes at room temperature. Plates were rinsed with distilled water and dried. Pictures were obtained of the plates and colonies consisting of 50 or more cells were counted using a Stuart Scientific colony counter.
All plates with colonies were analyzed except when colony numbers were so high that the edges of individual colonies could not be determined accurately. Plating efficiency (PE) of each tumour sample was calculated first: PE is a ratio of the number of colonies to the number of cells seeded (sum of all the colonies countable in all the plates of the same sample divided by the sum of cells plated in the same plates). The PE of control tumours was averaged for the calculation of surviving fraction (SF): SF is based on the number of colonies formed in drug and/or radiation treated cells relative to that of untreated control (PE of treated tumor sample divided by PE of control). All treated data points were compared separately to the average of the controls. Finally a Clonogenic Survival Enhancement Ratio (CS-ER) was calculated: the SF of irradiated control groups were divided by the SF of treatment groups to determine treatment group-specific CS-ER values, and these were assigned scores based on defined response ranges: values>6=A, 4-6=B, <4=C.

FaDu tumour xenograft [2] = assay: Tumour Growth Delay, FaDu tumour xenograft-bearing animals, compound ± radiation (TGD-ER); format: in vivo; settings: PO
Method: FaDu tumour xenograft-bearing animals were monitored for tumour growth and once average tumour size reached approximately 100-250 mm3, animals were assigned to treatment cohorts using stratified randomization. […]
For BID dosing regimens, at 8 h following the first injection, animals were again administered with test compound at the same dose as their previous administration. Animals were weighed and had tumours measured using calipers three times weekly until the endpoint of maximum tumour volume, 1000 mm3, was reached and animals were euthanized. Tumour volumes were calculated according to the equation L×W^2/2 with the length (mm) being the longer axis of the tumour; in the case that no tumour was palpable, tumour volumes were recorded as 0 mm^3.
Data were calculated as tumour growth normalized to day 0 measurements, with time to tumour doubling determined. Average time to tumour doubling for each group was used to determine a Tumour Growth Delay Enhancement Ratio (TGD-ER): the time to doubling for treatment groups were divided by the time to doubling for irradiation-alone groups to determine group-specific TGD-ER values, and these were assigned scores based on defined response ranges: values>2.5=A, 1-2.5=B, <1=C.

Compound | CS-ER Range Score (FaDu tumour xenograft [1]; 30 mpk + 8 Gy, 2 h) | CS-ER Range Score (FaDu tumour xenograft [1]; 30 mpk + 8 Gy, 4 h) | TGD-ER Range Score (FaDu tumour xenograft [2]; (30 mpk + 2 Gy) Q5D) | TGD-ER Range Score (FaDu tumour xenograft [2]; (30 mpk) Q5D) | TGD-ER Range Score (FaDu tumour xenograft [2]; 30 mpk BID + 10 Gy) | other results
CN(C)C(=O)COc1cnc(N[C@H]2CC[C@@H](Oc3nc(N4CCOCC4)cc4ncccc34)CC2)nc1 [Compound 54, N,N-Dimethyl-2-((2-(((1s,4s)-4-((7-morpholino-1,6-naphthyridin-5-yl)oxy)cyclohexyl)amino)pyrimidin-5-yl)oxy)acetamide] |  |  |  |  |  | CS-ER Range Score (FaDu tumour xenograft [1]; 100 mpk + 10 Gy, 0.5 h): B (4-6=B); CS-ER Range Score (FaDu tumour xenograft [1]; 100 mpk + 10 Gy, 4 h): A (values>6=A); CS-ER Range Score (FaDu tumour xenograft [1]; 100 mpk + 10 Gy, 8 h): B (4-6=B); CS-ER Range Score (FaDu tumour xenograft [1]; 100 mpk + 10 Gy, 24 h): A (values>6=A); TGD-ER Range Score (FaDu tumour xenograft [2]; 10 mpk + 10 Gy): B (1-2.5=B); TGD-ER Range Score (FaDu tumour xenograft [2]; 30 mpk + 10 Gy): A (values>2.5=A); TGD-ER Range Score (FaDu tumour xenograft [2]; 100 mpk + 10 Gy): B (1-2.5=B)
O=C(COc1cnc(N[C@H]2CC[C@@H](Oc3nc(N4CCOCC4)cc4ncccc34)CC2)nc1)N1CCOCC1 [Compound 61, 1-Morpholino-2-((2-(((1s,4s)-4-((7-morpholino-1,6-naphthyridin-5-yl)oxy)cyclohexyl)amino)pyrimidin-5-yl)oxy)ethan-1-one] | C (<4=C) | B (4-6=B) | A (values>2.5=A) | C (<1=C) |  | 
CN1CCN(CCOc2cnc(N[C@H]3CC[C@@H](Oc4nc(N5CCOCC5)cc5ncccc45)CC3)nc2)CC1 [Compound 69, 5-(2-(4-Methylpiperazin-1-yl)ethoxy)-N-((1s,4s)-4-((7-morpholino-1,6-naphthyridin-5-yl)oxy)cyclohexyl)pyrimidin-2-amine] |  | C (<4=C) | A (values>2.5=A) | C (<1=C) | B (1-2.5=B) | TGD-ER Range Score (FaDu tumour xenograft [2]; 30 mpk + @4 h 10 Gy): C (<1=C); TGD-ER Range Score (FaDu tumour xenograft [2]; 100 mpk + @4 h 10 Gy): B (1-2.5=B)
O=C(COc1cnc(N[C@H]2CC[C@@H](Oc3nc(N4CCOCC4)cc4ncccc34)CC2)nc1)N1CCC1 [Compound 75, 1-(Azetidin-1-yl)-2-((2-(((1s,4s)-4-((7-morpholino-1,6-naphthyridin-5-yl)oxy)cyclohexyl)amino)pyrimidin-5-yl)oxy)ethan-1-one] | B B (4-6=B) | B B (4-6=B) |  |  | B (1-2.5=B) | 
CN(C)C(=O)Cn1ccc2nc(N[C@H]3CC[C@@H](Oc4nc(N5CCOCC5)cc5ncccc45)CC3)ncc21 [Compound 86, N,N-Dimethyl-2-(2-(((1s,4s)-4-((7-morpholino-1,6-naphthyridin-5-yl)oxy)cyclohexyl)amino)-5H-pyrrolo[3,2-d]pyrimidin-5-yl)acetamide] | B B (4-6=B) | B B (4-6=B) | A (values>2.5=A) | B (1-2.5=B) | B (1-2.5=B) | 
CN(C)C(=O)Cn1c(=O)n(C2CCOCC2)c2nc(N[C@H]3CC[C@@H](Oc4nc(N5CCOCC5)cc5ncccc45)CC3)ncc21 [Compound 97, N,N-Dimethyl-2-(2-(((1s,4s)-4-((7-morpholino-1,6-naphthyridin-5-yl)oxy)cyclohexyl)amino)-8-oxo-9-(tetrahydro-2H-pyran-4-yl)-8,9-dihydro-7H-purin-7-yl)acetamide] | C (<4=C) | B (4-6=B) |  |  |  | 
CN(C)C(=O)COc1ccc(C(=O)N[C@H]2CC[C@@H](Oc3nc(N4CCOCC4)cc4ncccc34)CC2)cn1 [Compound 117, 6-(2-(dimethylamino)-2-oxoethoxy)-N-((1s,4s)-4-((7-morpholino-1,6-naphthyridin-5-yl)oxy)cyclohexyl)nicotinamide] | C (<4=C) | B (4-6=B) |  |  |  | 
O=S(=O)(CF)Nc1cnc2cc(N3CCOCC3)nc(O[C@H]3CC[C@@H](Nc4ncccn4)CC3)c2c1 [Compound 192, 1-fluoro-N-(7-morpholino-5-(((1s,4s)-4-(pyrimidin-2-ylamino)cyclohexyl)oxy)-1,6-naphthyridin-3-yl)methanesulfonamide] | A (values>6=A) | B (4-6=B) |  |  |  | 
